Experimental data: ChEMBL document CHEMBL2062374, “Chemoenzymatic synthesis and evaluation of 3-azabicyclo[3.2.0]heptane derivatives as dopaminergic ligands” (Eur J Med Chem, 2012)

What was measured:
Type in all cases: cell-based
D(1A) dopamine receptor = D(1A) dopamine receptor (Homo sapiens, UniProt P21728); experiment: Displacement of [3H]SCH23390 from human D1 receptor expressed in HEK293 cells
D(2) dopamine receptor = D(2) dopamine receptor (Homo sapiens, UniProt P14416); experiment: Displacement of [3H]raclopride from human D2L receptor expressed in HEK293 cells
D(3) dopamine receptor = D(3) dopamine receptor (Homo sapiens, UniProt P35462); experiment: Displacement of [3H]raclopride from human D3 receptor expressed in HEK293 cells
Sequence of D(3) dopamine receptor (P35462 whole entry): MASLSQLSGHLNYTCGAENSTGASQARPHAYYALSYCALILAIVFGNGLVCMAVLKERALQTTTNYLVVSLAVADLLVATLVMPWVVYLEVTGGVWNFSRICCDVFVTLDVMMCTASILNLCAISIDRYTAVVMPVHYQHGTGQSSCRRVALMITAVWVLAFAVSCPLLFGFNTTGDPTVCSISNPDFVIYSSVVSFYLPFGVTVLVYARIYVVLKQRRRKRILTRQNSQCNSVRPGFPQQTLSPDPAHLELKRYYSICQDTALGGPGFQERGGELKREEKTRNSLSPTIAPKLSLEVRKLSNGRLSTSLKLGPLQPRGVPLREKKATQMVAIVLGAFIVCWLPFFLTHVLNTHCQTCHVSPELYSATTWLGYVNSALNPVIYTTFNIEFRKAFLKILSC

Sequence of D(1A) dopamine receptor (P21728 whole entry): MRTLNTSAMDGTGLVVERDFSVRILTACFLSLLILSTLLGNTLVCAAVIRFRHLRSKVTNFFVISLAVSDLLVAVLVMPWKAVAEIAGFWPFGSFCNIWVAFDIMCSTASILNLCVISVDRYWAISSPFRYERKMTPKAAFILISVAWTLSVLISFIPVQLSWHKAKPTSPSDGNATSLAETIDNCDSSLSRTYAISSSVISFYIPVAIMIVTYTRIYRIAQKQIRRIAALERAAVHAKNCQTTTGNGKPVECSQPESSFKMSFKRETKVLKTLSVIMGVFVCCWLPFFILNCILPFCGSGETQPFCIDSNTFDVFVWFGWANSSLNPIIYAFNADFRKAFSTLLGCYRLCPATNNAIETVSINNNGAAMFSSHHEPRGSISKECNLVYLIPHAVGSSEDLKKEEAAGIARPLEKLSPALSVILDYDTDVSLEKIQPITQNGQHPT
Sequence of D(2) dopamine receptor (P14416 whole entry): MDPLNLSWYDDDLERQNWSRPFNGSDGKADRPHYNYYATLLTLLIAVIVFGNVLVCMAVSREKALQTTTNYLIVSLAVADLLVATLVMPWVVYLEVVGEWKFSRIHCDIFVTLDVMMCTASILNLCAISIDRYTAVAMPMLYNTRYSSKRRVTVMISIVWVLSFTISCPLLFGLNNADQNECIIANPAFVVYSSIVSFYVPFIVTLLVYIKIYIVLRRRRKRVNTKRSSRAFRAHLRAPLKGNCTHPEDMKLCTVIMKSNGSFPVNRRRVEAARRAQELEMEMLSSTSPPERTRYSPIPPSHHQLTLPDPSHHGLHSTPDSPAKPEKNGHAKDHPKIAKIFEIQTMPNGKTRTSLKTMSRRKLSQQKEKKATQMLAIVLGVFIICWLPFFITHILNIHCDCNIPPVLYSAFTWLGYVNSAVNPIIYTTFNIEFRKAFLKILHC

Compound	Ki (D(1A) dopamine receptor) [µM]	Ki (D(2) dopamine receptor) [µM]	Ki (D(3) dopamine receptor) [µM]
OC[C@H]1[C@H]2CN(Cc3ccccc3)[C@H](c3ccccc3)[C@H]2[C@@H]1N1CCCC1	40.8	7.4	11
OC[C@@H]1[C@@H]2CN(Cc3ccccc3)[C@@H](c3ccccc3)[C@@H]2[C@H]1N1CCCC1	22	0.25	0.28
C[C@@H]1[C@@H]2[C@H](CN1Cc1ccccc1)[C@H](CO)[C@H]2N1CCCC1	> 100	66	36
C[C@H]1[C@H]2[C@@H](CN1Cc1ccccc1)[C@@H](CO)[C@@H]2N1CCCC1	> 100	16	11
OC[C@H]1[C@H]2CN(Cc3ccccc3)[C@H](c3ccccc3)[C@H]2[C@@H]1N1CCCCC1	44	7	5.3
OC[C@@H]1[C@@H]2CN(Cc3ccccc3)[C@@H](c3ccccc3)[C@@H]2[C@H]1N1CCCCC1	49	2	1.5

The next lines start with the values.

Ki (D(1A) dopamine receptor) [µM]	Ki (D(2) dopamine receptor) [µM]	Ki (D(3) dopamine receptor) [µM]	Compound
42	12	13.2	CCN(CC)[C@@H]1[C@@H](CO)[C@H]2CN(Cc3ccccc3)[C@H](c3ccccc3)[C@H]21
22	1.7	1.3	CCN(CC)[C@H]1[C@H](CO)[C@@H]2CN(Cc3ccccc3)[C@@H](c3ccccc3)[C@@H]21
> 100	38	21	CCN(CC)[C@@H]1[C@@H](CO)[C@H]2CN(Cc3ccccc3)[C@H](C)[C@H]21
> 100	3.9	1.77	CCN(CC)[C@H]1[C@H](CO)[C@@H]2CN(Cc3ccccc3)[C@@H](C)[C@@H]21
7	5	7.93	CCN(CC)[C@@H]1[C@@H](CO)[C@H]2CN(Cc3ccccc3)[C@H](c3ccc(Br)cc3)[C@H]21
8	2	2.14	CCN(CC)[C@H]1[C@H](CO)[C@@H]2CN(Cc3ccccc3)[C@@H](c3ccc(Br)cc3)[C@@H]21
> 100	42	36	CCN(CC)[C@@H]1[C@@H](CO)[C@H]2CN(Cc3ccccc3)[C@H](c3ccccn3)[C@H]21
> 100	12	8.8	CCN(CC)[C@H]1[C@H](CO)[C@@H]2CN(Cc3ccccc3)[C@@H](c3ccccn3)[C@@H]21
